Source: patent US5008187A, “Antifungal fermentation product” (Merck & Co., Inc., priority 1988, dated 1991)
≈ marks a conversion by molar mass, not a printed value. Entries after “also recorded” stand apart in the source; their conditions may differ.

How the values were obtained:
A. flavus = experiment: agar dilution MIC; assay type: cell-based; settings: strain MF383, yeast nitrogen base agar
Experimental: (§1) Minimum inhibiting concentration against representative fungal organisms may be seen in the results of tests carried out by the agar dilution method in which an aqueous suspension of the metabolite was solubilized by adding a small amount of methanol. Further dilutions were made employing water. The diluted samples were added to molten agar to produce final concentrations of 512 μg/ml and lower. The molten agar was yeast nitrogen base agar prepared by adding 1 part of sterile yeast nitrogen base agar to 9 parts 2% Difco agar.

Aspergillus fumigatus = experiment: agar dilution MIC; assay type: cell-based; settings: strain MF4839, yeast nitrogen base agar
Experimental: as §1

Aspergillus niger = experiment: agar dilution MIC; assay type: cell-based
Experimental: as §1

C. rugosa = experiment: agar dilution MIC; assay type: cell-based; settings: strain MY1022, yeast nitrogen base agar
Experimental: as §1

C. tropicalis = experiment: agar dilution MIC; assay type: cell-based; settings: strain MY1012, yeast nitrogen base agar
Experimental: as §1

Candida pseudotropicalis = experiment: agar dilution MIC; assay type: cell-based; settings: strain MY1100, yeast nitrogen base agar
Experimental: as §1

Cephalosporium sp. = experiment: agar dilution MIC; assay type: cell-based; settings: strain MF4641, yeast nitrogen base agar
Experimental: as §1

Ceratocystis ulmi = experiment: agar dilution MIC; assay type: cell-based; settings: strain MF4042, yeast nitrogen base agar
Experimental: as §1

Cercospora beticola = experiment: agar dilution MIC; assay type: cell-based; settings: strain MF4608, yeast nitrogen base agar
Experimental: as §1

Cr. albidus = experiment: agar dilution MIC; assay type: cell-based; settings: strain MY1070, yeast nitrogen base agar
Experimental: as §1

Cr. laurentii = experiment: agar dilution MIC; assay type: cell-based
Experimental: as §1

Cryptococcus neoformans = experiment: agar dilution MIC; assay type: cell-based
Experimental: as §1

[1] = test system: Debaryomyces guilliermondi; experiment: agar dilution MIC; assay type: cell-based; settings: strain MY321, yeast nitrogen base agar
Experimental: as §1

Fusarium oxysporium = experiment: agar dilution MIC; assay type: cell-based; settings: strain MF4014, yeast nitrogen base agar
Experimental: as §1

Penicillium sp. = experiment: agar dilution MIC; assay type: cell-based
Experimental: as §1

Scopulariopsi communis = experiment: agar dilution MIC; assay type: cell-based; settings: strain MF3769, yeast nitrogen base agar
Experimental: as §1

Trichoderma lignorum = experiment: agar dilution MIC; assay type: cell-based; settings: strain MF3560, yeast nitrogen base agar
Experimental: as §1

Trichoderma sp. = experiment: agar dilution MIC; assay type: cell-based; settings: strain MF4064, yeast nitrogen base agar
Experimental: as §1

Ustilago maydis = experiment: agar dilution MIC; assay type: cell-based; settings: strain MF1996, yeast nitrogen base agar
Experimental: as §1

Verticillium serrae = experiment: agar dilution MIC; assay type: cell-based; settings: strain MF3794, yeast nitrogen base agar
Experimental: as §1

[2] = test system: filamentous fungi and yeast organisms; experiment: antifungal activity (summary statement); assay type: cell-based; settings: in words
Experimental: as §1

bacteria = experiment: antibacterial activity (summary statement); assay type: cell-based; settings: in words, no data shown
[3] = solubility in organic solvents; assay type: physicochemical; settings: organic solvents such as methanol, ethanol, dimethylformamide, dimethyl sulfoxide, ethyl acetate

## CCCCCCC(C)CC(C)=CC(C=C(C)C=CC(O)C(C)(C)c1cc(O)c(C2OC(CO)CC(O)C2O)c(=O)o1)CO (centres unmarked) [Compound I]
A. flavus
  MIC: 64 µg/mL (≈ 105 µM)
Aspergillus fumigatus
  MIC: 64 µg/mL (≈ 105 µM)
Aspergillus niger; strain MF11, yeast nitrogen base agar
  MIC: 1.6 µg/mL (≈ 2.64 µM)
Aspergillus niger; strain MF442, yeast nitrogen base agar
  MIC: 3.1 µg/mL (≈ 5.11 µM)
C. rugosa
  MIC: 25 µg/mL (≈ 41.2 µM)
C. tropicalis
  MIC: 25 µg/mL (≈ 41.2 µM)
Candida pseudotropicalis
  MIC: 25 µg/mL (≈ 41.2 µM)
Cephalosporium sp.
  MIC: 12.5 µg/mL (≈ 20.6 µM)
Ceratocystis ulmi
  MIC: 25 µg/mL (≈ 41.2 µM)
Cercospora beticola
  MIC: 4 µg/mL (≈ 6.59 µM)
Cr. albidus
  MIC: 8 µg/mL (≈ 13.2 µM)
Cr. laurentii; strain MY1073, yeast nitrogen base agar
  MIC: 6.2 µg/mL (≈ 10.2 µM)
Cr. laurentii; strain MY1074, yeast nitrogen base agar
  MIC: 8 µg/mL (≈ 13.2 µM)
Cr. laurentii; strain MY1077, yeast nitrogen base agar
  MIC: 12.5 µg/mL (≈ 20.6 µM)
Cryptococcus neoformans; strain MY1046, yeast nitrogen base agar
  MIC: 8 µg/mL (≈ 13.2 µM)
Cryptococcus neoformans; strain MY1050, yeast nitrogen base agar
  MIC: 32 µg/mL (≈ 52.7 µM)
Cryptococcus neoformans; strain MY1051, yeast nitrogen base agar
  MIC: 128 µg/mL (≈ 211 µM)
[1]
  MIC: 6.2 µg/mL (≈ 10.2 µM)
Fusarium oxysporium
  MIC: 25 µg/mL (≈ 41.2 µM)
Penicillium sp.; strain MF5014, yeast nitrogen base agar
  MIC: 3.1 µg/mL (≈ 5.11 µM)
Penicillium sp.; strain MF5020, yeast nitrogen base agar
  MIC: 1.6 µg/mL (≈ 2.64 µM)
Scopulariopsi communis
  MIC: 6.2 µg/mL (≈ 10.2 µM)
Trichoderma lignorum
  MIC: 6.2 µg/mL (≈ 10.2 µM)
Trichoderma sp.
  MIC: 1.6 µg/mL (≈ 2.64 µM)
Ustilago maydis
  MIC: 8 µg/mL (≈ 13.2 µM)
Verticillium serrae
  MIC: 25 µg/mL (≈ 41.2 µM)
[2]
  antifungal activity: active against a moderately broad spectrum of filamentous fungi and yeast organisms; also recorded: excellent antifungal properties against many filamentous and many yeast organisms
bacteria
  antibacterial properties: antibacterial properties
[3]
  solubility: soluble
